Source: patent US20080152640A1, “Means and Methods For Treating a Disease Which is Associated With an Excess Transport of Hyaluronan Across a Lipid Bilayer” (priority 2003, published 2008)
Read-outs that look alike come from different tables or passages of the source.

Experiments:
MRP5 = MRP5 (Homo sapiens, UniProt O15440); conditions: cited from earlier work
MRP4 = target: T1, MRP4 (Homo sapiens, UniProt O15439); conditions: cited from earlier work
T1 sequence (O15439 1-1325): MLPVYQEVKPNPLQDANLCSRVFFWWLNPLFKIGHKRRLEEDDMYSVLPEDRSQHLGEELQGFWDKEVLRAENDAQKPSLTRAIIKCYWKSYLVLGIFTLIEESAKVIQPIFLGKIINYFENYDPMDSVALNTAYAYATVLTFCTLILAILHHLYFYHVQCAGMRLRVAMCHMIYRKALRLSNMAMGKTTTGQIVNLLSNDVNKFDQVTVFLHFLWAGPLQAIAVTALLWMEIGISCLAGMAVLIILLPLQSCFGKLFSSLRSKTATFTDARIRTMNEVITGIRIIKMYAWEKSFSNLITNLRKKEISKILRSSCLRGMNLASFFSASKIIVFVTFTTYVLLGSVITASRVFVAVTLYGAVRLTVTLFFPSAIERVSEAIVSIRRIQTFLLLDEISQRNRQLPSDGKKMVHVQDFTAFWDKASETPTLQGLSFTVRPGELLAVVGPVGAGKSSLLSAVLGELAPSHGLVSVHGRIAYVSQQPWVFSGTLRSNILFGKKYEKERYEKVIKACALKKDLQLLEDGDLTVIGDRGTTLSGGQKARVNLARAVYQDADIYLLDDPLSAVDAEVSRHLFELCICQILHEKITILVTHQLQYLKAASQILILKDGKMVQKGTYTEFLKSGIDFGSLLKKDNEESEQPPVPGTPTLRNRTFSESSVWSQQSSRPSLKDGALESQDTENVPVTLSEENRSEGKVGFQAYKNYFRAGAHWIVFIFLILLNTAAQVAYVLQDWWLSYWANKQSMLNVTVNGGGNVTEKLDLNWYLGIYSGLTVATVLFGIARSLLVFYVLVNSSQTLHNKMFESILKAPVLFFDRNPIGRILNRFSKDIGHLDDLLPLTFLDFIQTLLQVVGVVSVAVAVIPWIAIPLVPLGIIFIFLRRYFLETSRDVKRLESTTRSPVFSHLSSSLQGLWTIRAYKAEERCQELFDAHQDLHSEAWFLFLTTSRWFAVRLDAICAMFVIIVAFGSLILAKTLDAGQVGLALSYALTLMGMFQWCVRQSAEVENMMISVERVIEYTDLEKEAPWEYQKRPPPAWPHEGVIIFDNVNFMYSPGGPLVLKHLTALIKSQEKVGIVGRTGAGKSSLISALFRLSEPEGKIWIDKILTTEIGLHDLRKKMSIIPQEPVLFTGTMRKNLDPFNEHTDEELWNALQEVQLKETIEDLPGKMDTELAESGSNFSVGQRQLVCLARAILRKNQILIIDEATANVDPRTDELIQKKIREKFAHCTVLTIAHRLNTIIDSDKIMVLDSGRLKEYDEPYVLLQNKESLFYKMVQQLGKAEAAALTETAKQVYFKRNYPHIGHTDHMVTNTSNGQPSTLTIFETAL

human skin fibroblasts = test: Proliferation of human skin fibroblasts (cell counting); type: cell-based; conditions: Homo sapiens, Skin fibroblast, read-out: Proliferation (IC50)
Description: Human fibroblasts were grown in […] in Dulbecco's modified Eagles medium supplemented with streptomycin/penicillin (100 units of each/ml), kanamycin (100 units/ml) and 10% foetal calf serum. Cell proliferation was determined by cell counting after trypsinisation three days after seeding.

human fibroblasts = test: Hyaluronan production of human fibroblasts (ELISA of culture medium); type: cell-based; conditions: Fibroblast; human fibroblasts, culture medium; read-out: HA production (IC50)

Sequence of MRP5 (O15440 whole entry): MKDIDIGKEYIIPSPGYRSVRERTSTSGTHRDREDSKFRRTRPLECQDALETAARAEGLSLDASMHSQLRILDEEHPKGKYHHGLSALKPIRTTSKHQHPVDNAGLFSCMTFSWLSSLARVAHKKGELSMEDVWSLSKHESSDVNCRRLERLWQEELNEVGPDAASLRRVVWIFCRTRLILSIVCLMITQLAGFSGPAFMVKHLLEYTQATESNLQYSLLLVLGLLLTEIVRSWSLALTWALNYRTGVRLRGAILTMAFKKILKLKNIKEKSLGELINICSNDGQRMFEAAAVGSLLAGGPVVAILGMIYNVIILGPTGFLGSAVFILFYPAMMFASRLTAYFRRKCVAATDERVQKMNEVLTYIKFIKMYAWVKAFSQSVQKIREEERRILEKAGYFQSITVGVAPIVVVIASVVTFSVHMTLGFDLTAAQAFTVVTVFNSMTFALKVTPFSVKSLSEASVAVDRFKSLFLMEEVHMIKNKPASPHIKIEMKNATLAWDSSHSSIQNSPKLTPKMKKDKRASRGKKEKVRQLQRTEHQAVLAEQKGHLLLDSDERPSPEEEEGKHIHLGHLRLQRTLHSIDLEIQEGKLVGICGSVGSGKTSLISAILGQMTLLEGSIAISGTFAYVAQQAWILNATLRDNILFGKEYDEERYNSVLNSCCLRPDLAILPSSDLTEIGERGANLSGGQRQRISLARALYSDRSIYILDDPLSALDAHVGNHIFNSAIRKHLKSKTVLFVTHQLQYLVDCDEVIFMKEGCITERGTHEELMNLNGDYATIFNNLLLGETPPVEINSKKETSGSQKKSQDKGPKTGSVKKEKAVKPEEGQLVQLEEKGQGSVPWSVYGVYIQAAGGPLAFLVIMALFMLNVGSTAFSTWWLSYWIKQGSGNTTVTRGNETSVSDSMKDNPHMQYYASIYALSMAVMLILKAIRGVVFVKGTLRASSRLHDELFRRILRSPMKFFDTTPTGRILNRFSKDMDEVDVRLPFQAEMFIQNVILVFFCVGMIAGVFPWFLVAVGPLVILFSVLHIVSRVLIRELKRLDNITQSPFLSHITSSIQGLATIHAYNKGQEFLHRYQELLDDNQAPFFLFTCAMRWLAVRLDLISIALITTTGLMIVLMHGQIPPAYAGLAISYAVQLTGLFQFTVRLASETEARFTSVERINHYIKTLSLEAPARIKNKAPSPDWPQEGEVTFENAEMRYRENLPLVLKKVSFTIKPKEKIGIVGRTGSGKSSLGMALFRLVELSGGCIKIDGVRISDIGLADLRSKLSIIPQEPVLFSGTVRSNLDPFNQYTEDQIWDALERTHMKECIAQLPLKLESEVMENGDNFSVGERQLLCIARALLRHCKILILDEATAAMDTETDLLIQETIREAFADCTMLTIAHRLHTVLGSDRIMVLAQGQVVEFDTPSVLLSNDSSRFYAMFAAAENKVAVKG

## CCCN(CCC)S(=O)(=O)c1ccc(C(=O)O)cc1 [Probenecid]
MRP5; at a concentration of 50 μM
  inhibition of MRP5 mediated transport of cGMP: 68%
MRP5; substrate PMEA, read-out: IC50, PMEA transport by MRP5
  IC50: 200 µM
MRP5; substrate fluorescein diacetate
  concentration inhibiting export of fluorescein diacetate by MRP5: 1 mM
MRP4; read-out: IC50, 9-(2-phosphonomethoxyethyl)adenine (PMEA) transport by MRP4, substrate PMEA
  IC50: 2300 µM
MRP4; read-out: IC50, MRP4 mediated export of methotrexate, substrate methotrexate
  IC50: ~300 µM
MRP4; read-out: published inhibitory concentrations IC50 or Ki, MRP4
  IC50: 300 µM
Human skin fibroblasts
  IC50: 200 µM
Human fibroblasts
  IC50: 200 µM
